Key:
[1] = target: GluN1-GluN2A NMDAR subtype (Homo sapiens, UniProt Q05586+Q12879); test: FLIPR/Ca2+ assay, NMDAR GluN1-GluN2A subtype in CHO cells; assay type: cell-based; details: CHO cells, 10 μM L-glutamate and 10 μM glycine, n.d. = 50% of inhibition could not be reached at the highest concentration used; for IC50: read-out: pIC50 (mean ± SEM) GluN1-GluN2A (converted)
Experimental: (§1) These compounds were assessed for their effects on specific heterodimeric NMDAR subtypes stably overexpressed in Chinese Hamster Ovary (CHO) cells. The subtypes tested included GluN1-GluN2A, GluN1-GluN2B, GluN1-GluN2C, and GluN1-GluN2D. CHO cells expressing each of the four NMDAR subtypes were incubated with 10 μM L-glutamate, a concentration known to elicit maximal Ca^2+ influx, serving as the stimulus. Intracellular Ca^2+ levels were subsequently measured to determine the extent of NMDAR activation.
(§2) Assay buffer composition was 145 mM NaCl, 5 mM KCl, 2 mM CaCl2, 1 g/Liter D-(+)-glucose, and 20 mM HEPES (pH 7.3 adjusted with NaOH). Cells were plated at a density of 15.000/well in 384 black/clear bottom plates. […] Cells were kept at 30 °C in 5% CO2 incubator for 24 h. Cells were preloaded for 1 h with 2 μM Fluo-4 Ca^2+-sensitive probe, simultaneously with 2.5 mM probenecid, an inhibitor of nonspecific anion transport, and 500 μM ketamine to avoid cytotoxicity. […] Intracellular Ca^2+ level was monitored by FLIPR (excitation wavelength at 470–495 nm, emission wavelength at 515–575 nm) for 10 s before and 5 min after the addition of test items. All test items, including L-glutamate and glycine, were added simultaneously. […] FLIPR data were normalized as 100%, in the presence of 10 μM L-glutamate and 10 μM glycine, while as 0%, in the presence of assay buffer. […] Then, data were normalized by Excel 2013 (Microsoft Office) software, using wells added with 10 μM L-glutamate plus 10 μM glycine (column 23) as high control, and wells added with assay buffer only (column 24) as low control. To assess plate quality, Z′ calculations were performed in Excel. Z′ was calculated according to following equation: Z′ = 1–3(σh + σl)/|μh – μL| where μ and σ are the means and the standard deviations of the means of high (h) and low (l) controls, respectively. Compound concentration–response curves were plotted by Prism 8 GraphPad software, in the different experimental conditions (see Supporting Information). Data were analyzed using least-squares regression fitting, to fit data to a standard four parameters logistic equation using GraphPad Prism10. This regression fitting allowed the calculation of pIC50 and the corresponding SEM.

[2] = target: T1, GluN1-GluN2B NMDAR subtype (Homo sapiens, UniProt Q05586+Q13224); test: FLIPR/Ca2+ assay, NMDAR GluN1-GluN2B subtype in CHO cells; assay type: cell-based; details: CHO cells, 10 μM L-glutamate and 10 μM glycine, n.d. = 50% of inhibition could not be reached at the highest concentration used; for IC50: read-out: pIC50 (mean ± SEM) GluN1-GluN2B (converted)
T1 construct: host or cells: NR1-2B-CHO cells, constitutive expression
Experimental: as §1, §2

[3] = target: GluN1-GluN2C NMDAR subtype (Homo sapiens, UniProt Q05586+Q14957); test: FLIPR/Ca2+ assay, NMDAR GluN1-GluN2C subtype in CHO cells; assay type: cell-based; details: CHO cells, 10 μM L-glutamate and 10 μM glycine, n.d. = 50% of inhibition could not be reached at the highest concentration used; for IC50: read-out: pIC50 (mean ± SEM) GluN1-GluN2C (converted)
Experimental: as §1, §2

[4] = target: GluN1-GluN2D NMDAR subtype (Homo sapiens, UniProt O15399+Q05586); test: FLIPR/Ca2+ assay, NMDAR GluN1-GluN2D subtype in CHO cells; assay type: cell-based; details: CHO cells, 10 μM L-glutamate and 10 μM glycine, n.d. = 50% of inhibition could not be reached at the highest concentration used; for IC50: read-out: pIC50 (mean ± SEM) GluN1-GluN2D (converted)
Experimental: as §1, §2

[5] = test system: Glutamate, NMDA, Phencyclidine binding site; test: Radioligand displacement binding assay, [3H]TCP, NMDA; design: species or system Wistar rat
[6] = target: T2, Histamine H1 (Homo sapiens, UniProt P35367); test: Radioligand displacement binding assay, [3H]pyrilamine, H1
T2 construct: host or cells: CHO-K1

[7] = target: T3, Muscarinic M5 (Homo sapiens, UniProt P08912); test: Radioligand displacement binding assay, [3H]N-methylscopolamine, M5
T3 construct: host or cells: CHO-K1
T3 sequence (P08912 1-532): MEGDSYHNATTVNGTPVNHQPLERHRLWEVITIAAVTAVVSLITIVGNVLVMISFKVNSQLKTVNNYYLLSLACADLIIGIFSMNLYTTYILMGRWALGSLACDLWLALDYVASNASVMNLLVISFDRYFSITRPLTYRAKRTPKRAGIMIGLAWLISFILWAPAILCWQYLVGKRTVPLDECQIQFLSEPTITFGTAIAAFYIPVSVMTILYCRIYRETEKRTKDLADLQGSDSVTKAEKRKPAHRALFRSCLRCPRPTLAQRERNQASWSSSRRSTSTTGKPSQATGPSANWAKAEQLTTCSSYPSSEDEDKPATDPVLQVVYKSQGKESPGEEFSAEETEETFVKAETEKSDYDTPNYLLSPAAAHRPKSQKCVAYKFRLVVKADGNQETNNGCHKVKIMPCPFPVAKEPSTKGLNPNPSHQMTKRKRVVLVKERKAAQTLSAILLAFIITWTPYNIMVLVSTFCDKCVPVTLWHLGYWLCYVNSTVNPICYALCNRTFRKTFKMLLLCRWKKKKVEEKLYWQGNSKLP

[8] = target: T4, μ opioid receptor (MOP) (Homo sapiens, UniProt P35372); test: biochemical; assay type: binding; details: read-out: % inhibition of binding, MOP
T4 construct: host or cells: CHO-K1

[9] = target: T5, Serotonin 5-HT1A (Homo sapiens, UniProt P08908); test: Radioligand displacement binding assay, [3H]8-OH-DPAT, 5-HT1A
T5 construct: host or cells: CHO-K1
T5 sequence (P08908 1-422): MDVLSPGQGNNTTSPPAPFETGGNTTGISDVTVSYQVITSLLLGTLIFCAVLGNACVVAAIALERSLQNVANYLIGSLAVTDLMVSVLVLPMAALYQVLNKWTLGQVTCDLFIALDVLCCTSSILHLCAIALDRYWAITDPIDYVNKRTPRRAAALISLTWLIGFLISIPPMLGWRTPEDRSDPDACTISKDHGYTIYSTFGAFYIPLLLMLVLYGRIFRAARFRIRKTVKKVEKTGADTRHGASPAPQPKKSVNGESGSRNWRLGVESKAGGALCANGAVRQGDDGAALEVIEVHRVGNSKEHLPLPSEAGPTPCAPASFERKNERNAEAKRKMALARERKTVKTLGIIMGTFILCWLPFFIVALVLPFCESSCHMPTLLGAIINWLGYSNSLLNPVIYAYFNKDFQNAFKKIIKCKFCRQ

[10] = target: T6, Serotonin 5-HT2A (Homo sapiens, UniProt P28223); test: Radioligand displacement binding assay, [3H]ketanserin, 5-HT2A
T6 construct: host or cells: CHO-K1

[11] = target: T7, Serotonin 5-HT2C (Homo sapiens, UniProt P28335); test: Radioligand displacement binding assay, [3H]mesulergine, 5-HT2C
T7 construct: host or cells: CHO-K1
T7 sequence (P28335 33-458): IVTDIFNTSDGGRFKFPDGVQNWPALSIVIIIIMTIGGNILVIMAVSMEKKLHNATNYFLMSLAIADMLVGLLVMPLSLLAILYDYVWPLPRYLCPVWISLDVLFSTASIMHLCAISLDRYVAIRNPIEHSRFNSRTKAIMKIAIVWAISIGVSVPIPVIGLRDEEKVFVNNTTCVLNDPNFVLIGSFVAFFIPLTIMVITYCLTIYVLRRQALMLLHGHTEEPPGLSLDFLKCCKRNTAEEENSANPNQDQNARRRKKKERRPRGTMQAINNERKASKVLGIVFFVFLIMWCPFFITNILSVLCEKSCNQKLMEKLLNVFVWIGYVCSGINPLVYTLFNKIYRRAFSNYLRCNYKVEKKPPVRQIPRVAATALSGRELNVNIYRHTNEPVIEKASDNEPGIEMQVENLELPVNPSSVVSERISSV

[12] = target: T8, Serotonin 5-HT5A (Homo sapiens, UniProt P47898); test: Radioligand displacement binding assay, [3H]LSD, 5-HT5A
T8 construct: host or cells: CHO-K1

[13] = target: T9, Serotonin 5-HT7 (Homo sapiens, UniProt P34969); test: Radioligand displacement binding assay, [3H]LSD, 5-HT7
T9 construct: host or cells: CHO-K1

[14] = target: T10, Sigma σ1 (Homo sapiens, UniProt Q99720); test: Radioligand displacement binding assay, [3H]pentazocine, sigma σ1
T10 construct: Sigma σ1; Source: Human Jurkat cells; host or cells: Jurkat

[15] = target: T11, Norepinephrine transporter NET (Homo sapiens, UniProt P23975); test: Radioligand displacement binding assay, [125I]RTI-55, NET
T11 construct: host or cells: MDCK

[16] = target: T12, Serotonin transporter SERT (Homo sapiens, UniProt P31645); test: Radioligand displacement binding assay, [3H]paroxetine, SERT
T12 construct: host or cells: HEK-293
T12 sequence (P31645 whole entry): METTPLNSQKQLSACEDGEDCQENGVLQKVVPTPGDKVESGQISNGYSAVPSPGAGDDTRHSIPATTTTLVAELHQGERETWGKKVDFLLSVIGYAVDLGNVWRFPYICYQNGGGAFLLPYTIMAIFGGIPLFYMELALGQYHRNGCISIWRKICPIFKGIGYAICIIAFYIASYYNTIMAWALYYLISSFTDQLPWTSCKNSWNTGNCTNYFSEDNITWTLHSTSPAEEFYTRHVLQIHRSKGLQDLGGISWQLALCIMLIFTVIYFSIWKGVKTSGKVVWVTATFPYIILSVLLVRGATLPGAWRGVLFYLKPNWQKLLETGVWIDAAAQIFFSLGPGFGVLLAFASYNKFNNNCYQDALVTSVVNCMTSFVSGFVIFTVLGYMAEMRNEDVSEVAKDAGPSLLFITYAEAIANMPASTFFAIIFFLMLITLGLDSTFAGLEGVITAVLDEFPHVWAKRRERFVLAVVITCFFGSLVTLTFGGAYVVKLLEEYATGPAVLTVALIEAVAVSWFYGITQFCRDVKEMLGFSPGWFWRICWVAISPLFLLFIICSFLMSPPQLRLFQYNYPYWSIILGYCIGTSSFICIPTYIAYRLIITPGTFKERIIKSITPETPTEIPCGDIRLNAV

T6 sequence (P28223 whole entry): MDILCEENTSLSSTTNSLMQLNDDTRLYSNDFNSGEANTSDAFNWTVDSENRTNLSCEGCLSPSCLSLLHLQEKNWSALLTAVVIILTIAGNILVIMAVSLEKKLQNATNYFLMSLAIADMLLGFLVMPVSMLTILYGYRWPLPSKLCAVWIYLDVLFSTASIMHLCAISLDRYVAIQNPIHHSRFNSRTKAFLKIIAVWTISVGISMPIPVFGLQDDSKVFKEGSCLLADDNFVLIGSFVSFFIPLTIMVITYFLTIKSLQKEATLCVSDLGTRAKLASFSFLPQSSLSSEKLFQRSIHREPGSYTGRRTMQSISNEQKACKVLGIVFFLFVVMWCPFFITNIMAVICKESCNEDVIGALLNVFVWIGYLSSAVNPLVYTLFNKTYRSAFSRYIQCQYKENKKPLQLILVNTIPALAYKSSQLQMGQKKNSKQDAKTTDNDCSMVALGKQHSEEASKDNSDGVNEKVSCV
T4 sequence (P35372 whole entry): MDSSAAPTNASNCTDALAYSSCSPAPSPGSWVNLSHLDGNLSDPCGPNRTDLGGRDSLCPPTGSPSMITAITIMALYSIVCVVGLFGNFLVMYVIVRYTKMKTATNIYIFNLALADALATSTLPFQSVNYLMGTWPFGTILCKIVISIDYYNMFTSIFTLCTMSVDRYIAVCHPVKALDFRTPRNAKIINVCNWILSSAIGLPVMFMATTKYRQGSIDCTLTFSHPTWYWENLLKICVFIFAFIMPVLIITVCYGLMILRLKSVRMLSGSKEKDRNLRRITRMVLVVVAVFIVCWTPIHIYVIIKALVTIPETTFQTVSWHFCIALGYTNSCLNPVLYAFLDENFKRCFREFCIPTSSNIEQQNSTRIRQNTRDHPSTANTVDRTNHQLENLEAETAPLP
T11 sequence (P23975 whole entry): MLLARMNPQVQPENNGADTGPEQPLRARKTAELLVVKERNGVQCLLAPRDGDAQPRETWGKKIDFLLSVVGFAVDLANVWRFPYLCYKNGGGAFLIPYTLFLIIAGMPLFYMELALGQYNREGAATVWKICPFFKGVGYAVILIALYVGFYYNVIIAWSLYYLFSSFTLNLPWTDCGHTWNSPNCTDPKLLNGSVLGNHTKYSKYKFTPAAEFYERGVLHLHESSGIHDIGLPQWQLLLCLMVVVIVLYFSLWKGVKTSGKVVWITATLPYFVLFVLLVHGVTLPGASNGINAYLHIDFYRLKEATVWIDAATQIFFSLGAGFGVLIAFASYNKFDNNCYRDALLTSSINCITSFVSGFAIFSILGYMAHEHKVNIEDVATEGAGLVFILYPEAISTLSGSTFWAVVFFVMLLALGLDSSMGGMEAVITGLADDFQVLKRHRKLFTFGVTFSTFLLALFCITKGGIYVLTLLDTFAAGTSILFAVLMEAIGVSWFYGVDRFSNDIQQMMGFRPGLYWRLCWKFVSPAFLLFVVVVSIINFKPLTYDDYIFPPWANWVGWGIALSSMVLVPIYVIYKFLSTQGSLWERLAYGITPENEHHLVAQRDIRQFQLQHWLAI
Chain of GluN1-GluN2A NMDAR subtype (Q12879 23-1464, other chains not shown): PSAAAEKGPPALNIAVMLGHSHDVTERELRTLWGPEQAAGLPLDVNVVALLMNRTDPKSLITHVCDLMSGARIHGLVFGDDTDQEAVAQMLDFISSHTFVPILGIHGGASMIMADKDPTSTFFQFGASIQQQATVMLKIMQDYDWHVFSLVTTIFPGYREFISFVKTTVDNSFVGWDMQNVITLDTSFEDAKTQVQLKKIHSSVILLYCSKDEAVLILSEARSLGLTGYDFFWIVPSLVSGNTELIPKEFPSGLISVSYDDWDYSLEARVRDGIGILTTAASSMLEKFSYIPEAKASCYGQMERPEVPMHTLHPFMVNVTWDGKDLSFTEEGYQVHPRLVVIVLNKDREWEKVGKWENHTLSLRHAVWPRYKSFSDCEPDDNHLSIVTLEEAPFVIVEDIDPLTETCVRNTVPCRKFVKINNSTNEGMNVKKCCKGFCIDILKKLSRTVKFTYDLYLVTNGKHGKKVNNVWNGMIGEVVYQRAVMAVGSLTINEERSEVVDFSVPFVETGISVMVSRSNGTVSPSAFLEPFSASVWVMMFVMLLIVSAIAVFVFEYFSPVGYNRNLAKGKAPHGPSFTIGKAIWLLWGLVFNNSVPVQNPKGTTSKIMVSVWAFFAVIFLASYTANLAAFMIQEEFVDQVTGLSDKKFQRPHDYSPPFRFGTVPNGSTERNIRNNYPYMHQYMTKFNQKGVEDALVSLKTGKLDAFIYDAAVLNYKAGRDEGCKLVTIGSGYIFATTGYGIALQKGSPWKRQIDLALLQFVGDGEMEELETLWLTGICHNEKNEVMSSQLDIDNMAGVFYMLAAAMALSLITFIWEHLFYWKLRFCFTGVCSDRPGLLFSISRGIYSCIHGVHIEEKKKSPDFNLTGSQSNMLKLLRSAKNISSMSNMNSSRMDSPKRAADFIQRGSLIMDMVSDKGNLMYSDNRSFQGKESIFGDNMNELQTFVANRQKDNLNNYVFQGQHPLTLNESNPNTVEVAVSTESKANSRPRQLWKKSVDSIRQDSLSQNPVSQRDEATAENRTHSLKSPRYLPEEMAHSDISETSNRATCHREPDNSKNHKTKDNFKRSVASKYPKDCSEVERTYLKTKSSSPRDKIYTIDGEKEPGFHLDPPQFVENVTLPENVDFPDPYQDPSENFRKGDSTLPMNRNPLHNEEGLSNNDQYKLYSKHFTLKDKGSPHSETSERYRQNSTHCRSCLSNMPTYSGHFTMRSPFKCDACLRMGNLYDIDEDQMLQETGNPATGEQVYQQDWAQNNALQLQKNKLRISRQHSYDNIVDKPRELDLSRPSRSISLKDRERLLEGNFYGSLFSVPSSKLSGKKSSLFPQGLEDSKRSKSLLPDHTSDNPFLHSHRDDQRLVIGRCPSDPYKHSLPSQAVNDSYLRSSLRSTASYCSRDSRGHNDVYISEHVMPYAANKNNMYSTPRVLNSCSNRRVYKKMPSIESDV
T10 sequence (Q99720 whole entry): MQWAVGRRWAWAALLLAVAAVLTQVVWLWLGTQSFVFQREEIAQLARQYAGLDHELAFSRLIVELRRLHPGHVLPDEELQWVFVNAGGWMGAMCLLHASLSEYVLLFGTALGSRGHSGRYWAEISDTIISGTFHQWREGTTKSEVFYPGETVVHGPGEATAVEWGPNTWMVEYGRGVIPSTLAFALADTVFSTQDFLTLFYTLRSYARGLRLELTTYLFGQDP
T9 sequence (P34969 whole entry): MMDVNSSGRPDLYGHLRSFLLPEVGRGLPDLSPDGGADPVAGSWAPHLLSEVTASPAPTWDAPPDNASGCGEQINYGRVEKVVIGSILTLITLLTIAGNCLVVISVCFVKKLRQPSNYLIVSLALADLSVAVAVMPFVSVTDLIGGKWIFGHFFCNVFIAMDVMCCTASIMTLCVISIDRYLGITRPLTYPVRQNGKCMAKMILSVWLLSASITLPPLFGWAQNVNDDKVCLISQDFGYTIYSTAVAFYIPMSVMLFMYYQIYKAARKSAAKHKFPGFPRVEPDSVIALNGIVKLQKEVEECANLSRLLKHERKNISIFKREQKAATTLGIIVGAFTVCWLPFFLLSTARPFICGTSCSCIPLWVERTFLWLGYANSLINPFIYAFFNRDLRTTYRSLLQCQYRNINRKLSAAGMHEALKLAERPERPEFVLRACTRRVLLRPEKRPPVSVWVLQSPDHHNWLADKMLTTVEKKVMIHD
T2 sequence (P35367 whole entry): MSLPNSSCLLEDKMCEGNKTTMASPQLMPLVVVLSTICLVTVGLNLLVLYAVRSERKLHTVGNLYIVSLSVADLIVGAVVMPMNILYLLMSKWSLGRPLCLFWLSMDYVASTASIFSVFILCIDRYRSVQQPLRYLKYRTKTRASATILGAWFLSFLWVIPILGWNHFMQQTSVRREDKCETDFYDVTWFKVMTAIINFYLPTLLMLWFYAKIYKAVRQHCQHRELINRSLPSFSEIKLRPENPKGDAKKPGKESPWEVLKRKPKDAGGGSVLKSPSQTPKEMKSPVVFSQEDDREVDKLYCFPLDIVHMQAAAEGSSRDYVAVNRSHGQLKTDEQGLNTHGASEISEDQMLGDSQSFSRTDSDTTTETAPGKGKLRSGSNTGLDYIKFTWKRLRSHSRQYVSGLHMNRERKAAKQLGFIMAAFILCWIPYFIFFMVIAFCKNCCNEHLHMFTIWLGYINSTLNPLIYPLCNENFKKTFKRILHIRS

Structure (SMILES)	pIC50 (mean ± SEM) GluN1-GluN2A [1]	pIC50 (mean ± SEM) GluN1-GluN2B [2]	pIC50 (mean ± SEM) GluN1-GluN2C [3]	pIC50 (mean ± SEM) GluN1-GluN2D [4]	% inhibition of binding, NMDA ([5]; 1 μM) [%]	inhibition at 10 µM [6] [%]	inhibition at 30 µM [6] [%]	inhibition at 1 µM [7] [%]	inhibition at 10 µM [7] [%]	inhibition at 0.3 µM [8] [%]	inhibition at 3 µM [8] [%]	inhibition at 0.3 µM [9] [%]	inhibition at 3 µM [9] [%]	inhibition at 0.3 µM [10] [%]	inhibition at 3 µM [10] [%]	inhibition at 0.3 µM [11] [%]	inhibition at 3 µM [11] [%]	inhibition at 1 µM [12] [%]	inhibition at 10 µM [12] [%]	inhibition at 1 µM [13] [%]	further results
CC[C@@H](O)C(C[C@H](C)N)(c1ccccc1)c1ccccc1 [(3R,6S)-DNML, (3R,6S)-6-amino-4,4-diphenylheptan-3-ol]	4.6 ± 0.077	4.6 ± 0.062	5.1 ± 0.062	4.9 ± 0.093	12	4	19	9	13	-3	26	1	-1	6	9	3	-1	-1	16	14	inhibition at 10 µM [13]: 12%; inhibition at 0.3 µM [14]: 17%; inhibition at 3 µM [14]: 61%; inhibition at 1 µM [15]: 0%; inhibition at 10 µM [15]: 5%; inhibition at 1 µM [16]: 29%; % inhibition of binding, SERT ([16]; 10 μM): displaced; inhibition at 10 µM ([16]; 10 μM): 65%
CC[C@@H](O)C(C[C@H](C)NC)(c1ccccc1)c1ccccc1 [(3R,6S)-NML, (3R,6S)-6-(methylamino)-4,4-diphenylheptan-3-ol]	4.4 ± 0.037	4.5 ± 0.053	4.6 ± 0.046	4.7 ± 0.057	8	6	43	11	46	1	29	5	11	0	4	-4	5	-1	15	14	% inhibition of binding, NMDA ([5]; 10 μM): 48%; inhibition at 10 µM [13]: 28%; inhibition at 0.3 µM [14]: 47%; inhibition at 3 µM [14]: 80%; inhibition at 1 µM [15]: 10%; inhibition at 10 µM [15]: 14%; inhibition at 1 µM [16]: 12%; inhibition at 10 µM ([16]; 10 μM): 45%
C[C@H]1CC(c2ccccc2)(c2ccccc2)C(=O)N1C [(S)-DDPO, 1,5-Dimethyl-3,3-diphenylpyrrolidin-2-one]	–	–	–	–	–	–	–	–	–	–	–	–	–	–	–	–	–	–	–	–	IC50 [1]: > 100 µM; IC50 [2]: > 100 µM; IC50 [3]: > 100 µM; IC50 [4]: > 100 µM
CNC1(c2ccccc2Cl)CCCCC1=O (racemic) [(±)-ketamine, reference compound]	4.6 ± 0.028	5.2 ± 0.037	5.4 ± 0.069	5.0 ± 0.087	–	–	–	–	–	–	–	–	–	–	–	–	–	–	–	–	–
C[C@@H](CC(C(=O)O)(c1ccccc1)c1ccccc1)N(C)C [(S)-DDVA, 4-(Dimethylamino)-2,2-diphenylpentanoic acid]	–	–	–	–	–	–	–	–	–	–	–	–	–	–	–	–	–	–	–	–	IC50 [1]: > 100 µM; IC50 [2]: > 100 µM; IC50 [3]: > 100 µM; IC50 [4]: > 100 µM
CC[C@H](O)C(C[C@H](C)N(C)C)(c1ccccc1)c1ccccc1 [(3S,6S)-ML, (3S,6S)-6-(dimethylamino)-4,4-diphenylheptan-3-ol]	4.1 ± 0.034	4.0 ± 0.077	4.1 ± 0.056	4.2 ± 0.16	–	–	–	–	–	–	–	–	–	–	–	–	–	–	–	–	–
